Test systems include HCC 2998; SF-295; UACC-62; RPMI-8226; MCF7; Hs-578T; SNB-19; NCI-H23; SN12C; A498; HOP-92; CAKI-1; PC-3; HT-29; LOX IMVI; T47D; OVCAR-8; DLD-1; M19-MEL.
Test in all cases: DTP human tumour cell line panel, 48 h

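96-well plates; 48 h exposure; 5 concentrations. Endpoints by linear interpolation between flanking doses. Not reached: highest tested concentration assigned. Here, GI50 denotes the concentration required for 50% inhibition of growth.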 Activity calls are given as the source filed them. Cut-off read from the data, not from the text of the source: active = GI50 up to about 1.1 µM and inactive = higher.

Take `C=CC(=O)N1C/C(=C\c2ccc(Cl)cc2)C(=O)/C(=C/c2ccc(Cl)cc2)C1`: the GI50 is 0.296 µM (active) in the experiment with HCC 2998; 0.288 µM (active) in the experiment with SF-295; 0.294 µM (active) with UACC-62; 0.0263 µM (active) in the experiment on RPMI-8226; 0.151 µM (active) with MCF7; 0.321 µM (active) in the experiment on Hs-578T. Besides, the GI50 is 1 µM (active) with SNB-19; 0.492 µM (active) in the experiment with NCI-H23; 0.313 µM (active) in the experiment on SN12C; 0.494 µM (active) with A498; 1.54 µM (inactive) in the experiment with HOP-92; 0.343 µM (active) in the experiment with CAKI-1. The GI50 was 0.255 µM (active) in the experiment on PC-3; 0.0989 µM (active) with HT-29; 0.124 µM (active) with LOX IMVI; 2 µM (inactive) in the experiment with T47D; 0.322 µM (active) with OVCAR-8.
Consider `COc1ccc(/C=C/C(=O)c2cc(C(C)(C)C)c(O)c(C(C)(C)C)c2)cc1OC`, for which the GI50 with HCC 2998 is 2.27 µM (inactive); in the experiment on SF-295, 6.52 µM (inactive); with UACC-62, 10 µM (inactive); with RPMI-8226 it was 2.56 µM (inactive); in the experiment with MCF7, 4.29 µM (inactive); in the experiment with Hs-578T it was 17.8 µM (inactive). The GI50 in the experiment with SNB-19 was 24.8 µM (inactive); in the experiment on NCI-H23, 12.1 µM (inactive); in the experiment with SN12C, 8.15 µM (inactive); in the experiment with A498 it was 15 µM (inactive); in the experiment with HOP-92, 16.6 µM (inactive); in the experiment with CAKI-1, 10.7 µM (inactive). In addition, the GI50 with PC-3 was 3.66 µM (inactive); in the experiment on HT-29, 4.18 µM (inactive); in the experiment with LOX IMVI, 8.75 µM (inactive); with T47D, 3.29 µM (inactive); with OVCAR-8, 10.5 µM (inactive).
`COc1cc(C2c3cc4c(cc3OC(N3CCOCC3)C2C)OCO4)ccc1O` (centres undefined): the GI50 is 14.9 µM (inactive) in the experiment with HCC 2998; 4.31 µM (inactive) in the experiment on SF-295; 8.05 µM (inactive) in the experiment on UACC-62; 4.22 µM (inactive) with RPMI-8226; 5.98 µM (inactive) in the experiment with MCF7; 6.55 µM (inactive) with Hs-578T. Also, the GI50 in the experiment with SNB-19 was 24.4 µM (inactive); in the experiment with NCI-H23, 28.6 µM (inactive); with SN12C, 40 µM (inactive); with A498, 17.6 µM (inactive); in the experiment on HOP-92, 2.84 µM (inactive); with CAKI-1 it was 31.2 µM (inactive). In addition, the GI50 is 7.28 µM (inactive) in the experiment with PC-3; 23.4 µM (inactive) in the experiment with HT-29; 11.8 µM (inactive) with LOX IMVI; 10.3 µM (inactive) in the experiment on T47D; 26.9 µM (inactive) in the experiment on OVCAR-8.
Regarding `O=C(N/N=C\c1c(O)ccc2ccccc12)c1ccncc1`, the GI50 was > 11.4 µM (inactive) with HCC 2998; > 5.98 µM (inactive) in the experiment with SF-295; 0.467 µM (active) in the experiment on UACC-62; 0.364 µM (active) in the experiment on RPMI-8226; 3.09 µM (inactive) with MCF7; > 15.3 µM (inactive) in the experiment on Hs-578T. Also, the GI50 with SNB-19 was 1.21 µM (inactive); with NCI-H23 it was 1.53 µM (inactive); with SN12C, 0.231 µM (active); in the experiment with A498, 2.21 µM (inactive); with HOP-92, 1.31 µM (inactive); with CAKI-1 it was 1 µM (active). Also, the GI50 with PC-3 was 0.752 µM (active); in the experiment on HT-29 it was 1.7 µM (inactive); with LOX IMVI, 0.301 µM (active); in the experiment with T47D, 2.49 µM (inactive); in the experiment with OVCAR-8 it was 0.574 µM (active).
As to `CCn1ncc(Oc2c(Cl)cc(N)cc2Cl)c(Cl)c1=O`, the GI50 in the experiment on HCC 2998 is 34.7 µM (inactive); in the experiment with SF-295, 29 µM (inactive); with UACC-62, 39.5 µM (inactive); in the experiment with RPMI-8226, 31.6 µM (inactive); with MCF7, 38.7 µM (inactive); in the experiment on Hs-578T, 22.5 µM (inactive). Besides, the GI50 was 33.4 µM (inactive) with SNB-19; 30.5 µM (inactive) in the experiment with NCI-H23; 79.3 µM (inactive) in the experiment with SN12C; 47.3 µM (inactive) in the experiment on A498; 73.6 µM (inactive) with HOP-92; 35.1 µM (inactive) in the experiment on CAKI-1. Besides, the GI50 in the experiment with PC-3 was 35.9 µM (inactive); in the experiment with HT-29 it was 25.3 µM (inactive); in the experiment on LOX IMVI it was 32.9 µM (inactive); in the experiment on T47D it was 50.2 µM (inactive); with OVCAR-8, 56.5 µM (inactive).
With `OC1(c2ccccc2)CC2CCC(C1)N2CCCC(O)(c1ccccc1)c1ccccc1` (centres undefined), the GI50 was 2.14 µM (inactive) in the experiment on HCC 2998; 3.33 µM (inactive) with SF-295; 14.3 µM (inactive) in the experiment with UACC-62; 2.28 µM (inactive) in the experiment on RPMI-8226; 16.1 µM (inactive) with MCF7; 4.83 µM (inactive) in the experiment on Hs-578T. Also, the GI50 in the experiment with SNB-19 is 20.7 µM (inactive); with NCI-H23 it was 11.9 µM (inactive); in the experiment on SN12C, 16.7 µM (inactive); in the experiment with A498 it was 15.5 µM (inactive); in the experiment on HOP-92, 5.62 µM (inactive); in the experiment on CAKI-1, 14 µM (inactive). Moreover, the GI50 in the experiment with PC-3 is 3.44 µM (inactive); in the experiment with HT-29 it was 2.78 µM (inactive); in the experiment with LOX IMVI it was 10.6 µM (inactive); with T47D it was 21.3 µM (inactive); in the experiment on OVCAR-8, 19.2 µM (inactive).
With `Cc1ccc2cccc(OC(=O)c3cc4c(cc3Cl)Sc3nccn3S4(=O)=O)c2n1`, the GI50 is 5.75 µM (inactive) in the experiment on HCC 2998; 12.9 µM (inactive) in the experiment with SF-295; 14.7 µM (inactive) in the experiment with UACC-62; 2.33 µM (inactive) with RPMI-8226; 5.71 µM (inactive) in the experiment on MCF7; 13.4 µM (inactive) in the experiment on Hs-578T. Also, the GI50 in the experiment on SNB-19 was 12.9 µM (inactive); with NCI-H23 it was 16.3 µM (inactive); with SN12C, 12.8 µM (inactive); in the experiment with A498, 17.7 µM (inactive); in the experiment with HOP-92, 14.6 µM (inactive); in the experiment on CAKI-1, 26.6 µM (inactive). Moreover, the GI50 with PC-3 is 4.39 µM (inactive); with HT-29, 10 µM (inactive); in the experiment with LOX IMVI, 7.13 µM (inactive); in the experiment on T47D it was 4.44 µM (inactive); in the experiment on OVCAR-8, 4.71 µM (inactive).
Regarding `C(=C(c1ccc(OC2CCCCO2)cc1)c1ccc(OC2CCCCO2)cc1)c1ccccc1` (centres undefined), the GI50 in the experiment on HCC 2998 is 0.723 µM (active); in the experiment on SF-295 it was 1.18 µM (inactive); with UACC-62, 0.547 µM (active); in the experiment on RPMI-8226, 0.294 µM (active); in the experiment with MCF7, 0.0995 µM (active); in the experiment with Hs-578T, 1.13 µM (inactive). The GI50 in the experiment on SNB-19 is 1.26 µM (inactive); in the experiment on NCI-H23, 0.546 µM (active); in the experiment on SN12C, 1.02 µM (active); in the experiment on A498, 1.31 µM (inactive); in the experiment on HOP-92, 0.524 µM (active); in the experiment on CAKI-1 it was 0.637 µM (active). Further, the GI50 in the experiment with PC-3 is 0.469 µM (active); in the experiment on HT-29 it was 0.386 µM (active); in the experiment on LOX IMVI it was 0.232 µM (active); in the experiment with T47D, 0.526 µM (active); with OVCAR-8 it was 0.598 µM (active).
`O=C(/C=C/c1ccc(O)c(O)c1)NC(CO)C(=O)O` (centres undefined): the GI50 with HCC 2998, with SF-295, in the experiment on UACC-62, in the experiment with RPMI-8226, in the experiment on MCF7 and in the experiment on Hs-578T was > 100 µM (inactive) throughout. Besides, the GI50 was > 100 µM (inactive) in the experiment on SNB-19; > 100 µM (inactive) in the experiment with NCI-H23; > 100 µM (inactive) with SN12C; > 100 µM (inactive) in the experiment with A498; 3.72 µM (inactive) with HOP-92; > 100 µM (inactive) in the experiment with CAKI-1. The GI50 in the experiment with PC-3, with HT-29, in the experiment on LOX IMVI, in the experiment with T47D and with OVCAR-8 was > 100 µM (inactive) in each case.
As for `CSC1(C(=O)O)C2CCC3C2CCC31` (centres undefined), the GI50 in the experiment with HCC 2998, with SF-295, with UACC-62, in the experiment on RPMI-8226, in the experiment with MCF7 and in the experiment on Hs-578T was > 100 µM (inactive) throughout. For the same compound, the GI50 with SNB-19, with NCI-H23, in the experiment on SN12C, in the experiment with A498, in the experiment on HOP-92 and in the experiment with CAKI-1 was > 100 µM (inactive) each time. Moreover, the GI50 with PC-3, with HT-29, in the experiment on LOX IMVI, in the experiment with T47D and with OVCAR-8 was > 100 µM (inactive) each time.
With `CCCC(O)c1ccc2[nH]c3c(C)cc([N+](=O)[O-])c(C)c3c2c1` (centres undefined), the GI50 with HCC 2998 is > 100 µM (inactive); in the experiment with SF-295, 95.1 µM (inactive); in the experiment with DLD-1 it was 54.1 µM (inactive); with RPMI-8226, 62.1 µM (inactive); with M19-MEL, > 100 µM (inactive); with SNB-19 it was > 100 µM (inactive). The GI50 in the experiment on NCI-H23 was > 100 µM (inactive); in the experiment on SN12C, > 100 µM (inactive); in the experiment on CAKI-1, > 100 µM (inactive); in the experiment with HT-29, 68.1 µM (inactive); in the experiment with LOX IMVI it was > 100 µM (inactive); in the experiment on OVCAR-8 it was > 100 µM (inactive).
As for `COc1cccc(/C=C\c2ccc(O)cc2)c1`, the GI50 was 23.8 µM (inactive) in the experiment with HCC 2998; 28.6 µM (inactive) in the experiment with SF-295; 10.2 µM (inactive) in the experiment on UACC-62; 22.4 µM (inactive) in the experiment with RPMI-8226; 26.1 µM (inactive) in the experiment on MCF7; 19.7 µM (inactive) with Hs-578T. Moreover, the GI50 in the experiment on SNB-19 was 29.7 µM (inactive); with NCI-H23, 15.1 µM (inactive); in the experiment on SN12C, 22.9 µM (inactive); in the experiment with A498 it was 28.3 µM (inactive); with HOP-92, 18.2 µM (inactive); with CAKI-1 it was 17.7 µM (inactive). Besides, the GI50 in the experiment on PC-3 was 11.7 µM (inactive); in the experiment with HT-29, 21.3 µM (inactive); in the experiment on LOX IMVI, 14.9 µM (inactive); in the experiment on T47D, 18.7 µM (inactive); with OVCAR-8 it was 12.3 µM (inactive).

The GI50 is the concentration that inhibits growth by half.

The values are drawn from ChEMBL document CHEMBL1201862, “PubChem BioAssay data set” (2004).
